ChEMBL document CHEMBL1201862, “PubChem BioAssay data set” (2004)
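1) Cells in 96-well plates. 2) Compound, 48 h, 5 concentrations. 3) Linear interpolation between surrounding doses. 4) Unreached endpoint = highest concentration. GI50: concentration for 50% inhibition of growth.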 Activity calls are given as the source filed them. No stated cut-off is given here; in the data, active = GI50 up to about 1.1 µM and inactive = higher.

Key:
Assay in all cases: growth of human tumour cells (NCI), 48 h
OVCAR-5 = tested on: OVCAR-5
T47D = tested on: T47D
K562 = tested on: K562
SK-MEL-5 = tested on: SK-MEL-5
MDA-MB-435 = tested on: MDA-MB-435
IGROV-1 = tested on: IGROV-1
Malme-3M = tested on: Malme-3M
SF-295 = tested on: SF-295
SN12C = tested on: SN12C
HOP-92 = tested on: HOP-92
TK-10 = tested on: TK-10
UACC-257 = tested on: UACC-257
BT-549 = tested on: BT-549
KM12 = tested on: KM12
SR = tested on: SR
NCI-H460 = tested on: NCI-H460
SW-620 = tested on: SW-620
DU-145 = tested on: DU-145
CCRF-CEM = tested on: CCRF-CEM
HCC 2998 = tested on: HCC 2998

SMILES | GI50 (OVCAR-5) | GI50 (T47D) | GI50 (K562) | GI50 (SK-MEL-5) | GI50 (MDA-MB-435) | GI50 (IGROV-1) | GI50 (Malme-3M) | GI50 (SF-295) | GI50 (SN12C) | GI50 (HOP-92) | GI50 (TK-10) | GI50 (UACC-257) | GI50 (BT-549) | GI50 (KM12) | GI50 (SR) | GI50 (NCI-H460) | GI50 (SW-620) | GI50 (DU-145) | GI50 (CCRF-CEM) | GI50 (HCC 2998)
O=C1N[C@@H]2O[C@H](CNC(=O)c3cc(Br)c[nH]3)C[C@]2(O)N1.O=C1N[C@H]2O[C@H](CNC(=O)c3cc(Br)c[nH]3)C[C@@]2(O)N1 | > 100 µM (inactive) | > 100 µM (inactive) | > 100 µM (inactive) | > 100 µM (inactive) | > 100 µM (inactive) | > 100 µM (inactive) | > 100 µM (inactive) | > 100 µM (inactive) | > 100 µM (inactive) | > 100 µM (inactive) | > 100 µM (inactive) | > 100 µM (inactive) | > 100 µM (inactive) | > 100 µM (inactive) | 0.379 µM (active) | > 100 µM (inactive) | > 100 µM (inactive) | > 100 µM (inactive) | – | –
O=C(NC1CCN(Cc2ccccc2)CC1)c1ccc(I)cc1 | > 100 µM (inactive) | > 100 µM (inactive) | 42.4 µM (inactive) | 17.7 µM (inactive) | 33.3 µM (inactive) | 94 µM (inactive) | 1.98 µM (inactive) | 29.5 µM (inactive) | > 100 µM (inactive) | 34 µM (inactive) | > 100 µM (inactive) | 45.8 µM (inactive) | 87.5 µM (inactive) | > 100 µM (inactive) | > 100 µM (inactive) | > 100 µM (inactive) | > 100 µM (inactive) | 91.6 µM (inactive) | 76.7 µM (inactive) | –
Cn1c(-c2ccccc2)cc(-c2ccsc2)c1-c1ccsc1 | > 100 µM (inactive) | > 100 µM (inactive) | > 100 µM (inactive) | > 100 µM (inactive) | > 100 µM (inactive) | > 100 µM (inactive) | – | > 100 µM (inactive) | > 100 µM (inactive) | > 100 µM (inactive) | > 100 µM (inactive) | > 100 µM (inactive) | > 100 µM (inactive) | > 100 µM (inactive) | 9.66 µM (inactive) | > 100 µM (inactive) | > 100 µM (inactive) | > 100 µM (inactive) | 50 µM (inactive) | > 100 µM (inactive)
O=C1c2c(Br)sc(Br)c2[C@@H](Cl)[C@H]1Cl | 20.8 µM (inactive) | 19 µM (inactive) | 10 µM (inactive) | 16.1 µM (inactive) | 19.3 µM (inactive) | 17.7 µM (inactive) | 19.1 µM (inactive) | 20.5 µM (inactive) | 8.87 µM (inactive) | 21 µM (inactive) | 29 µM (inactive) | 15.9 µM (inactive) | 20.6 µM (inactive) | 17.2 µM (inactive) | 2.81 µM (inactive) | 19.4 µM (inactive) | 5.08 µM (inactive) | 18.7 µM (inactive) | 3.18 µM (inactive) | –
COC(=O)C12Oc3ccc(-c4ccc5c(c4O)C(O)=C4C(=O)CC(C)C(O)C4(C(=O)OC)O5)c(O)c3C(O)=C1C(=O)CC(C)C2O (centres undefined) | 0.119 µM (active) | 0.25 µM (active) | 0.0753 µM (active) | 0.0394 µM (active) | 0.0634 µM (active) | 0.104 µM (active) | 0.0217 µM (active) | 0.211 µM (active) | 0.121 µM (active) | 0.466 µM (active) | 0.231 µM (active) | 0.073 µM (active) | 0.262 µM (active) | 0.0555 µM (active) | 0.0234 µM (active) | 0.0421 µM (active) | 0.0889 µM (active) | 0.547 µM (active) | 0.0255 µM (active) | –
Cc1ccc(N(C)S(=O)(=O)c2ccccc2[N+](=O)[O-])cc1 | 65.5 µM (inactive) | 77.4 µM (inactive) | – | – | 29.2 µM (inactive) | – | 33.2 µM (inactive) | 52.1 µM (inactive) | 83 µM (inactive) | – | > 100 µM (inactive) | 41.7 µM (inactive) | 23.3 µM (inactive) | 29.4 µM (inactive) | 47.4 µM (inactive) | 32.5 µM (inactive) | 58.3 µM (inactive) | 98.4 µM (inactive) | – | –
O=c1[nH]c2ccccc2c(=O)n1/N=C/c1ccc(O)cc1 | > 100 µM (inactive) | > 100 µM (inactive) | > 100 µM (inactive) | > 100 µM (inactive) | > 100 µM (inactive) | > 100 µM (inactive) | – | 50.7 µM (inactive) | 55.2 µM (inactive) | 26.1 µM (inactive) | > 100 µM (inactive) | > 100 µM (inactive) | 64.3 µM (inactive) | > 100 µM (inactive) | > 100 µM (inactive) | > 100 µM (inactive) | > 100 µM (inactive) | > 100 µM (inactive) | 66.4 µM (inactive) | –
CCCCC1Cc2cc(OC)ccc2-c2nc3cc(OC)ccc3n21.CCCCC1Cc2cc(OC)ccc2-c2nc3ccc(OC)cc3n21 (centres undefined) | 16.9 µM (inactive) | 13.1 µM (inactive) | 10.5 µM (inactive) | 14.3 µM (inactive) | 13.2 µM (inactive) | 11.1 µM (inactive) | 16 µM (inactive) | – | 14.7 µM (inactive) | 2.06 µM (inactive) | 18.7 µM (inactive) | 14.4 µM (inactive) | 18.8 µM (inactive) | 18.7 µM (inactive) | 11.6 µM (inactive) | 15.4 µM (inactive) | 14.5 µM (inactive) | 16.4 µM (inactive) | 13.8 µM (inactive) | –
O=C(/C=C/C=C/c1ccccc1)c1ccc2c(c1)CCCC2 | > 100 µM (inactive) | 16 µM (inactive) | 30.9 µM (inactive) | 37.2 µM (inactive) | 18.9 µM (inactive) | 42.8 µM (inactive) | – | 58.3 µM (inactive) | 32.5 µM (inactive) | 30 µM (inactive) | 73.6 µM (inactive) | 31.1 µM (inactive) | 26 µM (inactive) | 28.8 µM (inactive) | 21.2 µM (inactive) | – | 45.8 µM (inactive) | 25.5 µM (inactive) | 27.8 µM (inactive) | 23 µM (inactive)
CC1C(=O)C23OC[C@@]1(C)C1(O)CC[C@@H](C)[C@]21CC3=O (some centres undefined) | > 100 µM (inactive) | > 100 µM (inactive) | > 100 µM (inactive) | > 100 µM (inactive) | > 100 µM (inactive) | > 100 µM (inactive) | > 100 µM (inactive) | > 100 µM (inactive) | > 100 µM (inactive) | – | > 100 µM (inactive) | > 100 µM (inactive) | > 100 µM (inactive) | > 100 µM (inactive) | > 100 µM (inactive) | > 100 µM (inactive) | > 100 µM (inactive) | > 100 µM (inactive) | > 100 µM (inactive) | > 100 µM (inactive)
CNc1ccc(C)cc1S(=O)(=O)c1ccccc1[N+](=O)[O-] | > 100 µM (inactive) | 29 µM (inactive) | 26.7 µM (inactive) | 18.2 µM (inactive) | 25.5 µM (inactive) | 58.5 µM (inactive) | 60.3 µM (inactive) | 42.1 µM (inactive) | 86.7 µM (inactive) | – | 99.3 µM (inactive) | – | 46.6 µM (inactive) | 59.4 µM (inactive) | 51.3 µM (inactive) | 51.1 µM (inactive) | 69.8 µM (inactive) | > 100 µM (inactive) | 21.4 µM (inactive) | 92.5 µM (inactive)
Cc1nc2ccc(/N=N/N(C)C)cc2[nH]1 | > 100 µM (inactive) | > 100 µM (inactive) | – | > 100 µM (inactive) | > 100 µM (inactive) | > 100 µM (inactive) | > 100 µM (inactive) | > 100 µM (inactive) | > 100 µM (inactive) | – | > 100 µM (inactive) | > 100 µM (inactive) | 86.5 µM (inactive) | > 100 µM (inactive) | > 100 µM (inactive) | > 100 µM (inactive) | > 100 µM (inactive) | > 100 µM (inactive) | 98.9 µM (inactive) | > 100 µM (inactive)
Oc1ccccc1CNCc1ccccc1O | > 100 µM (inactive) | > 100 µM (inactive) | 39.6 µM (inactive) | 46.9 µM (inactive) | 54.3 µM (inactive) | > 100 µM (inactive) | > 100 µM (inactive) | > 100 µM (inactive) | > 100 µM (inactive) | 99.5 µM (inactive) | > 100 µM (inactive) | > 100 µM (inactive) | > 100 µM (inactive) | > 100 µM (inactive) | – | 78.5 µM (inactive) | > 100 µM (inactive) | > 100 µM (inactive) | 59.2 µM (inactive) | 19.2 µM (inactive)
CC1(C)[C@H]2Cc3cc(-c4cc5c(cn4)[C@@H]4C[C@H]([C@@H]5[C@@H]5c6cc(-c7cc8c(cn7)[C@@H]7C[C@H](C8)C7(C)C)ncc6[C@@H]6C[C@H]5C6(C)C)C4(C)C)ncc3[C@@H]1C2 | > 100 µM (inactive) | > 100 µM (inactive) | > 100 µM (inactive) | > 100 µM (inactive) | > 100 µM (inactive) | > 100 µM (inactive) | > 100 µM (inactive) | > 100 µM (inactive) | > 100 µM (inactive) | > 100 µM (inactive) | – | > 100 µM (inactive) | > 100 µM (inactive) | > 100 µM (inactive) | > 100 µM (inactive) | > 100 µM (inactive) | > 100 µM (inactive) | > 100 µM (inactive) | > 100 µM (inactive) | 76.7 µM (inactive)
Nc1c(S(=O)(=O)O)cc(S(=O)(=O)O)c2ccc(/N=N/c3ccccc3)c(O)c12 | > 100 µM (inactive) | > 100 µM (inactive) | 43.3 µM (inactive) | > 100 µM (inactive) | > 100 µM (inactive) | > 100 µM (inactive) | > 100 µM (inactive) | > 100 µM (inactive) | > 100 µM (inactive) | > 100 µM (inactive) | > 100 µM (inactive) | > 100 µM (inactive) | > 100 µM (inactive) | > 100 µM (inactive) | > 100 µM (inactive) | > 100 µM (inactive) | > 100 µM (inactive) | > 100 µM (inactive) | > 100 µM (inactive) | –
